Results taken from PubChem BioAssay AID330 (DTP/NCI, 2004).
“And” between values parts separate entries of the source, which are not always exact repeats. Identical values can stand only once. Inconclusive results and toxic doses are left out. Peptide text beside a SMILES is read from it.

Test system: P388 leukemia ip, CD2F1 mice, survival T/C
Experiment: NCI In Vivo Anticancer Drug Screen. Data for tumor model P388 Leukemia (intraperitoneal) in CD2F1 (CDF1) mice
Details: endpoint: median survival time, higher = longer survival
In short: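 Mice carrying the transplanted tumor received test compound or vehicle. Survival was recorded in each group, and the value is the treated-group measurement divided by that of the vehicle-treated control group.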

[1] = dose: 60.0 mg/kg/injection, schedule: Q01DX005 (ip), vehicle: saline
[2] = dose: 120.0 mg/kg/injection, schedule: Q01DX005 (ip), vehicle: saline
[3] = dose: 240.0 mg/kg/injection, schedule: Q01DX005 (ip), vehicle: saline
[4] = dose: 25.0 mg/kg/injection, schedule: Q01DX005 (ip), vehicle: saline with Tween-80
[5] = dose: 50.0 mg/kg/injection, schedule: Q01DX005 (ip), vehicle: saline with Tween-80
[6] = dose: 100.0 mg/kg/injection, schedule: Q01DX005 (ip), vehicle: saline with Tween-80
[7] = dose: 12.5 mg/kg/injection, schedule: Q01DX009 (ip), vehicle: water
[8] = dose: 60.0 mg/kg/injection, schedule: Q01DX005 (ip), vehicle: saline with Tween-80
[9] = dose: 120.0 mg/kg/injection, schedule: Q01DX005 (ip), vehicle: saline with Tween-80
[10] = dose: 200.0 mg/kg/injection, schedule: Q01DX005 (ip), vehicle: saline with Tween-80

C=CC1OCCC(C)O1 (stereo unspecified)
T/C [1]: 99 % of control
T/C [2]: 100 % of control
T/C [3]: 97 % of control

Cc1nc2c(I)cccc2c(=O)n1CC(=O)NNC(N)=S
T/C (dose: 100.0 mg/kg/injection, schedule: Q04DX003 (ip), vehicle: saline with Tween-80): 101 % of control
T/C (dose: 200.0 mg/kg/injection, schedule: Q04DX003 (ip), vehicle: saline with Tween-80): 97 % of control
T/C (dose: 400.0 mg/kg/injection, schedule: Q04DX003 (ip), vehicle: saline with Tween-80): 100 % of control

NC(=O)N/N=C1\CCCCC12CCCC2
T/C (dose: 100.0 mg/kg/injection, schedule: Q04DX002 (ip), vehicle: saline with Tween-80): 102 % of control
T/C (dose: 200.0 mg/kg/injection, schedule: Q04DX002 (ip), vehicle: saline with Tween-80): 102 % of control
T/C (dose: 400.0 mg/kg/injection, schedule: Q04DX002 (ip), vehicle: saline with Tween-80): 100 % of control

Cc1c2c(C#N)nccc2c(C)c2c1c1ccccc1n2Cc1ccccc1
T/C (dose: 6.25 mg/kg/injection, schedule: Q04DX003 (ip), vehicle: distilled water + Tween-80): 96 % of control
T/C (dose: 12.5 mg/kg/injection, schedule: Q04DX003 (ip), vehicle: distilled water + Tween-80): 90 % of control
T/C (dose: 25.0 mg/kg/injection, schedule: Q04DX003 (ip), vehicle: distilled water + Tween-80): 87 % of control
T/C (dose: 50.0 mg/kg/injection, schedule: Q04DX003 (ip), vehicle: distilled water + Tween-80): 87 % of control
T/C (dose: 100.0 mg/kg/injection, schedule: Q04DX003 (ip), vehicle: distilled water + Tween-80): 90 % of control
T/C (dose: 200.0 mg/kg/injection, schedule: Q04DX003 (ip), vehicle: distilled water + Tween-80): 91 % of control

CS/C(=C1/C(=O)N(c2ccccc2)N=C1c1ccccc1)N1CC1
T/C (dose: 100.0 mg/kg/injection, schedule: Q04DX003 (ip), vehicle: Klucel (hydroxypropylcellulose) (HPC)): 98 % of control
T/C (dose: 200.0 mg/kg/injection, schedule: Q04DX003 (ip), vehicle: Klucel (hydroxypropylcellulose) (HPC)): 94 % of control
T/C (dose: 400.0 mg/kg/injection, schedule: Q04DX003 (ip), vehicle: Klucel (hydroxypropylcellulose) (HPC)): 95 % of control

CSC(=S)N1CCN(C(=S)SC)C1=O
T/C (dose: 50.0 mg/kg/injection, schedule: Q01DX005 (ip), vehicle: Klucel (hydroxypropylcellulose) (HPC)): 108 % of control
T/C (dose: 100.0 mg/kg/injection, schedule: Q01DX005 (ip), vehicle: Klucel (hydroxypropylcellulose) (HPC)): 96 % of control
T/C (dose: 200.0 mg/kg/injection, schedule: Q01DX005 (ip), vehicle: Klucel (hydroxypropylcellulose) (HPC)): 91 % of control

Cc1ccc(C(=Nc2ccccc2)N=P(c2ccccc2)(c2ccccc2)c2ccccc2)cc1
T/C [4]: 103 % of control
T/C [5]: 113 % of control and 122 % of control
T/C [6]: 120 % of control

CC1(C)OC2OC3C(O)C(=O)OC3C2O1 (stereo unspecified)
T/C [1]: 107 % of control
T/C [2]: 97 % of control
T/C [3]: 99 % of control

Cc1ccc(NN=O)nc1
T/C (dose: 6.25 mg/kg/injection, schedule: Q01DX009 (ip), vehicle: water): 151 % of control and 152 % of control
T/C [7]: 153 % of control and 183 % of control

COP(=O)(O)/C(=N/NS(=O)(=O)c1ccc(C)cc1)c1ccccc1
T/C [7]: 96 % of control
T/C (dose: 25.0 mg/kg/injection, schedule: Q01DX009 (ip), vehicle: water): 96 % of control
T/C (dose: 50.0 mg/kg/injection, schedule: Q01DX009 (ip), vehicle: water): 93 % of control
T/C (dose: 100.0 mg/kg/injection, schedule: Q01DX009 (ip), vehicle: water): 98 % of control
T/C (dose: 200.0 mg/kg/injection, schedule: Q01DX009 (ip), vehicle: water): 98 % of control
T/C (dose: 400.0 mg/kg/injection, schedule: Q01DX009 (ip), vehicle: water): 97 % of control

COc1ccc(C2C3=C(CC(C)(C)CC3=O)Oc3cc4c(cc32)OCO4)cc1 (stereo unspecified)
T/C [8]: 93 % of control
T/C [9]: 96 % of control

CC(O)C(N)C(=O)NC(C(=O)NC(C(=O)O)C(C)O)C(C)O (stereo not drawn) (H-Thr-Thr-Thr-OH; configuration not given here)
T/C (dose: 50.0 mg/kg/injection, schedule: Q01DX005 (ip), vehicle: saline): 104 % of control
T/C (dose: 100.0 mg/kg/injection, schedule: Q01DX005 (ip), vehicle: saline): 92 % of control
T/C (dose: 200.0 mg/kg/injection, schedule: Q01DX005 (ip), vehicle: saline): 104 % of control

COC(=O)C(C/C(=C/NC(=O)c1ccccc1)NC(=O)c1ccccc1)NC(=O)c1ccccc1 (stereo unspecified)
T/C [5]: 98 % of control
T/C [6]: 98 % of control
T/C [10]: 100 % of control

C#CC(C)(C)Nc1c2ccccc2nc2ccccc12
T/C [5]: 96 % of control
T/C [6]: 103 % of control
T/C [10]: 102 % of control

O=c1c2ccccc2nc(-c2ccccc2Cl)n1/N=C/c1ccc(Cl)cc1Cl
T/C [5]: 93 % of control
T/C [6]: 103 % of control
T/C [10]: 102 % of control

Nc1ccc(O)c2c1C(=O)c1ccccc1C2=O
T/C [5]: 93 % of control
T/C [6]: 111 % of control
T/C [10]: 101 % of control

CCCCCNC(=S)N/N=C(\C)c1ccccn1
T/C (dose: 12.5 mg/kg/injection, schedule: Q01DX009 (ip), vehicle: Klucel (hydroxypropylcellulose) (HPC)): 107 % of control
T/C (dose: 25.0 mg/kg/injection, schedule: Q01DX009 (ip), vehicle: Klucel (hydroxypropylcellulose) (HPC)): 123 % of control
T/C (dose: 50.0 mg/kg/injection, schedule: Q01DX009 (ip), vehicle: Klucel (hydroxypropylcellulose) (HPC)): 106 % of control

CCOC(=O)C(CCC#N)(C(=O)Cc1ccc(OC)c(OC)c1)C(=O)OCC
T/C (dose: 25.0 mg/kg/injection, schedule: Q01DX009 (ip), vehicle: other): 101 % of control
T/C (dose: 50.0 mg/kg/injection, schedule: Q01DX009 (ip), vehicle: other): 103 % of control
T/C (dose: 100.0 mg/kg/injection, schedule: Q01DX009 (ip), vehicle: other): 106 % of control
T/C (dose: 200.0 mg/kg/injection, schedule: Q01DX009 (ip), vehicle: other): 103 % of control
T/C (dose: 400.0 mg/kg/injection, schedule: Q01DX009 (ip), vehicle: other): 103 % of control

O=C(c1ccccc1)c1ccccc1NCC(O)COc1cccc2ccccc12 (stereo unspecified)
T/C [8]: 100 % of control
T/C [9]: 92 % of control
T/C (dose: 240.0 mg/kg/injection, schedule: Q01DX005 (ip), vehicle: saline with Tween-80): 91 % of control

CCN(CC)CCNc1cc2c(c3c(=O)c4ccccc4sc13)CCCC2
T/C (dose: 7.8 mg/kg/injection, schedule: Q01DX005 (ip), vehicle: other): 101 % of control
T/C (dose: 15.6 mg/kg/injection, schedule: Q01DX005 (ip), vehicle: other): 113 % of control
T/C (dose: 31.3 mg/kg/injection, schedule: Q01DX005 (ip), vehicle: other): 104 % of control
T/C (dose: 62.5 mg/kg/injection, schedule: Q01DX005 (ip), vehicle: other): 113 % of control
T/C (dose: 125.0 mg/kg/injection, schedule: Q01DX005 (ip), vehicle: other): 101 % of control

CN(C)CCCNc1cc(/C=C/c2ccc([N+](=O)[O-])cc2)nc2ccccc12
T/C [5]: 106 % of control
T/C [6]: 106 % of control
T/C [10]: 106 % of control

O=C1C=C(Nc2ccc(Br)cc2)C(Nc2ccc(Br)cc2)=CC1=O
T/C (dose: 4.68 mg/kg/injection, schedule: Q01DX009 (ip), vehicle: saline with Tween-80): 97 % of control
T/C (dose: 9.37 mg/kg/injection, schedule: Q01DX009 (ip), vehicle: saline with Tween-80): 105 % of control
T/C (dose: 18.75 mg/kg/injection, schedule: Q01DX005 (ip), vehicle: saline with Tween-80): 100 % of control
T/C (dose: 18.75 mg/kg/injection, schedule: Q01DX009 (ip), vehicle: saline with Tween-80): 106 % of control
T/C (dose: 37.5 mg/kg/injection, schedule: Q01DX005 (ip), vehicle: saline with Tween-80): 92 % of control

CN(C)CCCN1c2ccccc2Cc2ccccc21
T/C (dose: 12.5 mg/kg/injection, schedule: Q01DX005 (ip), vehicle: saline with Tween-80): 111 % of control
T/C [4]: 108 % of control
T/C [5]: 100 % of control and 111 % of control
T/C [6]: 114 % of control

Cc1ccc(S(=O)(=O)CC2(Br)CCc3ccccc3C2=O)cc1 (stereo unspecified)
T/C (dose: 100.0 mg/kg/injection, schedule: Q04DX003 (ip), vehicle: saline): 97 % of control
T/C (dose: 200.0 mg/kg/injection, schedule: Q04DX003 (ip), vehicle: saline): 91 % of control
T/C (dose: 400.0 mg/kg/injection, schedule: Q04DX003 (ip), vehicle: saline): 95 % of control

CCOC(=O)C1CCC=CC1OC(C)=O (stereo unspecified)
T/C (dose: 100.0 mg/kg/injection, schedule: Q01DX001 (ip), vehicle: olive oil, sesame oil, peanut oil): 112 % of control
T/C (dose: 200.0 mg/kg/injection, schedule: Q01DX001 (ip), vehicle: olive oil, sesame oil, peanut oil): 108 % of control
T/C (dose: 400.0 mg/kg/injection, schedule: Q01DX001 (ip), vehicle: olive oil, sesame oil, peanut oil): 107 % of control
